Measured values as given in patent US20060110456A1, “Method for biocidal and/or biostatic treatment and compositions therefor” (NATIONAL UNIVERSITY OF SINGAPORE, priority 2004, published 2006).
In brackets after ≈: the same amount, converted by molar mass. Entries after “also recorded” stand apart in the source; their conditions may differ. Counter-ions that a name gives are not always drawn. Like-named read-outs stand apart in the source and are kept apart here.

Legend:
[1] = system: Balanus amphitrite stage II naupliar larvae
Method: (§1) Pharmaceuticals from the respective manufacturers were treated in the following way. A pill containing a known amount of active ingredient (as stated in product information) was ground in a mortar and pestle and a suspension of 2 mg ml^−1 generated in de-ionized water. This stock solution is stored at −20° C. in 4 ml amber screw cap vials. For the bioassays, 250 ul of stock solution is added to 10 ml of 1 um filtered seawater. This suspension was then sonicated for 10 minutes. Serial dilutions of this 50 μg ml^−1 seawater solution, or suspension, with seawater was done to generate the required range of concentrations.
Stage II naupliar larvae used in tests were obtained from Balanus amphitrite adults collected from inter-tidal rock walls at Kranji mangrove, Singapore. Larvae were collected from a container of adults by attraction to a point source of light and transferred to 500 ml of fresh seawater. Next, larvae were re-concentrated with a fiber optic light and added to assays.
Duplicate assays were conducted in 2 ml micro-centrifuge tubes (Axygen MCT-200-C) in 1.5 ml of filtered seawater for 22 to 24 hours. The assays were repeated for confirmation. There were four controls (vehicle only, 0 μg ml^−1), and 2 tubes of each for each test concentration. The assay was initiated by addition of barnacle nauplii in 50 to 100 μl of seawater.
After 22 to 24 hours of incubation at 25-27° C., solutions containing test animals were transferred to a Bogorov tray and scored as living or dead. Moribund larvae were scored as dead. Results were confirmed by repeating the assay. […] If data were not appropriate for probit analysis, the LC50 was estimated from graphed data.

barnacle nauplii = assay: Toxicity of drugs under different light conditions and over time (stability in seawater); format: in vivo, Balanus amphitrite; conditions: for Change in toxicity on ageing in seawater, 12L:12D condition / Change in toxicity on ageing in seawater, dark condition / Effect of UV on drug toxicity to barnacle nauplii: 25 ug ml^−1 seawater suspension; for Change in toxicity on ageing in seawater, 12L:12D condition: 12 h light and 12 h dark; for Change in toxicity on ageing in seawater, 12L:12D condition / Change in toxicity on ageing in seawater, dark condition: after 4 weeks; for Effect of UV on drug toxicity to barnacle nauplii: UV for half an hour
Method: Preliminary experiments were carried out to examine the chemical stability of the drugs. 25 ug ml^−1 seawater suspensions of the drugs were prepared, in 3 replicates per condition, 3 replicate tubes containing 15 ml per test tube per prepared for each treatment type. The treatments consisted of: • i. Dark condition: tubes were wrapped in aluminium foil and kept in the dark at all times • ii. 12L:12D condition, where the tubes were subject incubated in a plant growth chamber with light regime of 12 hours light and 12 hours dark. • iii. UV treated tubes were subject to UV for half an hour. […] Sets (1) & (2) were tested at week 0, 1, 2 and after 4 weeks. “UV” set is only assayed after UV treatment. […] Effect of UV

[2] = system: marine bacteria (ten strains); assay: Bio-adhesion assay (crystal violet microplate); format: cell-based, marine bacteria isolated from Singapore fouling communities; conditions: for Effect on bacterial adhesion: polystyrene or tissue culture surface as named in the value; for Effect of drugs on adhesion of bacteria: 50 μl of 125 μg ml^−1 drug + 200 μl bacteria, 2 hours
Method: The effect of pharmaceuticals on bacterial adhesion was analyzed using a modified microplate method adapted from Shea and Williamson (1990). This method consists of staining the attached bacteria with crystal violet, releasing the stain with sodium desoxycholate, and measuring the resulting absorbance of the crystal violet. The absorbance is proportional to the degree of bacterial adhesion to the surface.
Ten strains of bacteria (strain numbers 1, 4, 9, 14, 18, 20, 27, 28, 29 and 30) were chosen for this study. Flat bottom non-tissue culture treated polystyrene (hydrophobic, Falcon #351172) (referred to as polystyrene) and flat bottom tissue culture treated polystyrene (hydrophilic, Falcon #353072) microplates were used in the analyses. These two types of plates were chosen because they were sterile and offered two different kinds of surfaces to determine the adhesion preferences of the bacteria. Each test was done in duplicate. For the control and blank wells, 50 μl of sterile deionized water were added. For those wells that were to contain drugs, 50 μl of drugs at concentration of 125 μg ml^−1 were added. Then 200 μl of bacteria suspension in sterile seawater, whose absorbance had been adjusted to 0.6 at 600 nm using a spectrophotometer (Beckman), were added. Blanks contained 200 μl of sterile seawater.
The bacteria in suspension were allowed to attach for 2 hours at 28° C. Unattached cells were removed by pipetting out almost all trace of liquid and rinsed three times with 300 μl of sterile seawater each time. The attached cells were stained with 200 μl of crystal violet solution (0.1% w/v) in each well for 5 min. After removing the stain by pipetting, the wells were rinsed twice with 300 μl of sterile deionized water each time. Sodium desoxycholate (200 μl) solution (2% w/v) was then added to each well to extract the crystal violet from the stained cells for 10 min. The absorbance of the extracted solution was read at 590 nm using a microplate reader (Sunrise, Tecan, Switzerland).
The data were analyzed using T-test (Two-sample assuming unequal variances) to determine the significance of the absorbance values of each bacterial strain versus the blanks to determine whether there was adhesion, i.e. increase in absorbance. Each drug effect on adhesion was analyzed by comparing the absorbance of each bacterial strain minus the control blank versus bacteria in presence of drug minus the drug control. When the data is significant, there are bacterial cells attached to the surface in the control but in the presence of drugs, there is no attachment.

[3] = cited from earlier work; for Solubility: in words
[4] = system: Balanus amphitrite cyprids; assay: whole plant or invertebrate; conditions: for IC50: Amphibalanus amphitrite, 24 h, read-out: ED50; for Prevention of settlement of barnacle cyprids: crude rank, best (1) to worst (8)
Method: as §1
This method is now standard practice for many antifouling screening of novel compounds.
Barnacle larvae from field-collected adults were reared on an algal mixture of 1:2:2 v/v of Rhodomonas salina, Tetraselmis suecica and Chaetoceros muelleri at 25° C., at approximately 5×10^5 cells per ml density. On this regime, larvae metamorphose to cyprids in 5 days.
Test solutions were made up to twice the required final concentration. 1 ml of test solution was added into each well, and cyprids were transferred into each well in 1 ml of seawater. Assays were done in triplicate. After 24 hours, larvae that had attached and metamorphosed were enumerated and the result expressed as percentage settlement. Larvae not attached were scored as not settled.
The Therapeutic Ratio, or LC50/EC50, is a way of assessing the effectiveness of the compound in relation to its toxicity. […] LC50 and EC50 estimates and the therapeutic ratio should be considered as working values providing an estimation of potency, rather than as absolutes.

[5] = barnacle nauplii, 22 to 24 hours, concentration that caused 50% mortality
[6] = strain 1 (Rhodovulum), hydrophobic surface (untreated polystyrene)
[7] = strain 4 (Bacillus), hydrophilic surface (tissue culture treated polystyrene)
[8] = strain 4 (Bacillus), hydrophobic surface (untreated polystyrene)
[9] = strain 9 (Bacillus), hydrophobic surface (untreated polystyrene)

SMILES: CN1CCN(C(c2ccccc2)c2ccccc2)CC1 [CYZ, Cyclizine hydrochloride]
- LD50 [1, 5]: 61.05 ng/mL
- Toxicity to barnacle nauplii and cyprids ([1]; in vivo): toxic to barnacle nauplii and cyprids
- Stability under UV and in seawater (barnacle nauplii; other studies carried out by the group): does not breakdown under UV and remains stable after four months in seawater
- Effect on bacterial adhesion ([2]; hydrochloride): did not modify bacterial adhesion on polystyrene; also recorded: marginally increased adhesion for strain 27 in the tissue culture surface
- Effect of drugs on adhesion of bacteria ([2]; strain 27, hydrophilic surface (tissue culture treated polystyrene)): *Incr adhesion
- Solubility [3]: soluble in water
- IC50 [4]: 0.156 µg/mL
- Prevention of settlement of barnacle cyprids [4]: 4

SMILES: CCCCCCCCCC(=O)OC1(c2ccc(Cl)cc2)CCN(CCCC(=O)c2ccc(F)cc2)CC1 [HDL, haloperidol decanoate]
- LD50 ([1]; Balanus amphitrite, in vivo): 252.68 ng/mL
- Toxicity to barnacle nauplii and cyprids ([1]; in vivo): toxic to barnacle nauplii and cyprids
- Change in toxicity on ageing in seawater, 12L:12D condition (barnacle nauplii): increased in toxicity
- Effect on bacterial adhesion [2]: significant inhibition of adhesion in strain 1 and 20
- Effect of drugs on adhesion of bacteria [2, 6]: *** (*** p < 0.005)
- Effect of drugs on adhesion of bacteria ([2]; strain 20, hydrophobic surface (untreated polystyrene)): * (Significantly less adhesion observed: * p < 0.05)
- Solubility in water [3]: 10 µg/mL (≈ 18.9 µM)
- Solubility [3]: almost insoluble in water
- IC50 [4]: 0.119 µg/mL (≈ 0.225 µM)
- Prevention of settlement of barnacle cyprids [4]: 3

SMILES: CN(C)C(=O)C(CCN1CCC(O)(c2ccc(Cl)cc2)CC1)(c1ccccc1)c1ccccc1 [IMD, Loperamide hydrochloride]
- LD50 [1, 5]: 241.34 ng/mL
- Effect on bacterial adhesion [2]: caused strain 1 to adhere to tissue culture surfaces
- Effect of drugs on adhesion of bacteria ([2]; strain 1 (Rhodovulum), hydrophilic surface (tissue culture treated polystyrene)): *incr adhesion
- Effect of drugs on adhesion of bacteria [2, 6]: * (Significantly less adhesion observed: * p < 0.05)
- Effect of drugs on adhesion of bacteria ([2]; strain 14 (Vibrio), hydrophilic surface (tissue culture treated polystyrene)): * (Significantly less adhesion observed: * p < 0.05)
- Solubility [3]: slightly soluble in water
- IC50 [4]: > 5 µg/mL
- Prevention of settlement of barnacle cyprids [4]: 8
- Effect on settlement of cyprids ([4]; in words): not effective against cyprids

SMILES: CN1CCN(CCCN2c3ccccc3Sc3ccc(Cl)cc32)CC1 [PCZ, prochlorperazine maleate]
- LD50 [1, 5]: 3.54 ng/mL
- Toxicity to barnacle nauplii and cyprids ([1]; in vivo): very toxic to nauplii and cyprids
- Change in toxicity on ageing in seawater, 12L:12D condition (barnacle nauplii): marked decrease in toxicity
- Change in toxicity on ageing in seawater, dark condition (barnacle nauplii): appreciable decrease in toxicity
- Effect of drugs on adhesion of bacteria [2, 6]: * (Significantly less adhesion observed: * p < 0.05)
- Effect of drugs on adhesion of bacteria [2, 7]: * (Significantly less adhesion observed: * p < 0.05)
- Effect of drugs on adhesion of bacteria [2, 8]: * (Significantly less adhesion observed: * p < 0.05)
- Effect of drugs on adhesion of bacteria [2, 9]: * (Significantly less adhesion observed: * p < 0.05)
- Effect of drugs on adhesion of bacteria ([2]; strain 30, hydrophobic surface (untreated polystyrene)): * (Significantly less adhesion observed: * p < 0.05)
- IC50 [4]: 0.174 µg/mL
- Prevention of settlement of barnacle cyprids [4]: 2

SMILES: CNCCC(Oc1ccc(C(F)(F)F)cc1)c1ccccc1 (stereo not shown) [PZC, fluoxetine hydrochloride]
- Change in toxicity on ageing in seawater, 12L:12D condition (barnacle nauplii): did not show an appreciable change
- Effect of UV on drug toxicity to barnacle nauplii (barnacle nauplii): some increase in toxicity
- Effect of drugs on adhesion of bacteria [2, 6]: * (Significantly less adhesion observed: * p < 0.05)
- Effect of drugs on adhesion of bacteria [2, 9]: * (Significantly less adhesion observed: * p < 0.05)
- Prevention of settlement of barnacle cyprids [4]: 7

SMILES: CN1CCN(CCCN2c3ccccc3Sc3ccc(C(F)(F)F)cc32)CC1 [TFZ, Trifluoperazine hydrochloride]
- LD50 [1, 5]: 9.35 ng/mL
- Toxicity to barnacle nauplii and cyprids ([1]; in vivo): very toxic to nauplii and cyprids
- Change in toxicity on ageing in seawater, 12L:12D condition (barnacle nauplii): marked decrease in toxicity
- Effect of UV on drug toxicity to barnacle nauplii (barnacle nauplii): some increase in toxicity
- Change in toxicity on ageing in seawater, dark condition (barnacle nauplii): appreciable decrease in toxicity
- Effect of drugs on adhesion of bacteria [2, 7]: * (Significantly less adhesion observed: * p < 0.05)
- Effect of drugs on adhesion of bacteria [2, 8]: *** (*** p < 0.005)
- Effect of drugs on adhesion of bacteria [2, 9]: ** (** p < 0.01)
- Effect of drugs on adhesion of bacteria ([2]; strain 18 (Microbacterium), hydrophilic surface (tissue culture treated polystyrene)): * (Significantly less adhesion observed: * p < 0.05)
- Effect of drugs on adhesion of bacteria ([2]; strain 27, hydrophobic surface (untreated polystyrene)): *** (*** p < 0.005)
- IC50 [4]: 0.0748 µg/mL
- Prevention of settlement of barnacle cyprids [4]: 2
